Experiments:
[1] = molecular target: T1, α1G T-type Ca2+ channels (Homo sapiens, UniProt O43497); experiment: Screening of activity against T-type calcium channel with FDSS6000 (fluorescence, KCl-induced [Ca2+]i increase); type: cell-based; conditions: HEK293 cells expressing α1G and Kir2.1, read-out: Inhibitory effect (%) of T-type calcium channel, Inhibition (%); for inhibition at 10 µM: NA: Not Active
T1 construct: expressed in transfected cells; host or cells: HEK293 cells stably expressing α1G and Kir2.1
Procedure, shortened: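 HEK293 cells stably expressing α1G plus Kir2.1 were loaded with 5 μM fluo3/AM for 60 min at room temperature in HEPES buffer pH 7.4. In buffer with 10 mM CaCl2, cells were pretreated with compound, then depolarized with 70 mM KCl. The rise in [Ca2+]i was measured by fluorescence […].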

[2] = molecular target: T2, α1G T-type Ca2+ currents (Homo sapiens, UniProt O43497); experiment: Electrophysiological whole cell patch clamp method in HEK293 cell; type: cell-based; conditions: peak current, step to −30 mV, read-out: Activity (IC50) against T-type calcium channel
T2 construct: expressed in transfected cells; host or cells: HEK293
Description: Meanwhile, the antagonistic activity of the novel compound of Formula (1) herein against T-type calcium channel was tested as described below. The synthesized compounds were tested for the activity against T-type calcium channel with FDSS6000. […] For the recordings of α1G T-type Ca^2+ currents, the standard whole-cell patch-clamp method was utilized as previously described. Briefly, borosilicate glass electrodes with a resistance of 3˜4 MΩ were pulled and filled with the internal solution contained (in mM): 130 KCl, 11 EGTA, 5 Mg-ATP, and 10 HEPES (pH 7.4). […] The molar concentrations of test compounds required to produce 50% inhibition of peak currents (IC50) were determined from fitting raw data into dose-response curves. The current recordings were obtained using an EPC-9 amplifier and Pulse/Pulsefit software program (HEKA, Germany).

T1 sequence (O43497 whole entry): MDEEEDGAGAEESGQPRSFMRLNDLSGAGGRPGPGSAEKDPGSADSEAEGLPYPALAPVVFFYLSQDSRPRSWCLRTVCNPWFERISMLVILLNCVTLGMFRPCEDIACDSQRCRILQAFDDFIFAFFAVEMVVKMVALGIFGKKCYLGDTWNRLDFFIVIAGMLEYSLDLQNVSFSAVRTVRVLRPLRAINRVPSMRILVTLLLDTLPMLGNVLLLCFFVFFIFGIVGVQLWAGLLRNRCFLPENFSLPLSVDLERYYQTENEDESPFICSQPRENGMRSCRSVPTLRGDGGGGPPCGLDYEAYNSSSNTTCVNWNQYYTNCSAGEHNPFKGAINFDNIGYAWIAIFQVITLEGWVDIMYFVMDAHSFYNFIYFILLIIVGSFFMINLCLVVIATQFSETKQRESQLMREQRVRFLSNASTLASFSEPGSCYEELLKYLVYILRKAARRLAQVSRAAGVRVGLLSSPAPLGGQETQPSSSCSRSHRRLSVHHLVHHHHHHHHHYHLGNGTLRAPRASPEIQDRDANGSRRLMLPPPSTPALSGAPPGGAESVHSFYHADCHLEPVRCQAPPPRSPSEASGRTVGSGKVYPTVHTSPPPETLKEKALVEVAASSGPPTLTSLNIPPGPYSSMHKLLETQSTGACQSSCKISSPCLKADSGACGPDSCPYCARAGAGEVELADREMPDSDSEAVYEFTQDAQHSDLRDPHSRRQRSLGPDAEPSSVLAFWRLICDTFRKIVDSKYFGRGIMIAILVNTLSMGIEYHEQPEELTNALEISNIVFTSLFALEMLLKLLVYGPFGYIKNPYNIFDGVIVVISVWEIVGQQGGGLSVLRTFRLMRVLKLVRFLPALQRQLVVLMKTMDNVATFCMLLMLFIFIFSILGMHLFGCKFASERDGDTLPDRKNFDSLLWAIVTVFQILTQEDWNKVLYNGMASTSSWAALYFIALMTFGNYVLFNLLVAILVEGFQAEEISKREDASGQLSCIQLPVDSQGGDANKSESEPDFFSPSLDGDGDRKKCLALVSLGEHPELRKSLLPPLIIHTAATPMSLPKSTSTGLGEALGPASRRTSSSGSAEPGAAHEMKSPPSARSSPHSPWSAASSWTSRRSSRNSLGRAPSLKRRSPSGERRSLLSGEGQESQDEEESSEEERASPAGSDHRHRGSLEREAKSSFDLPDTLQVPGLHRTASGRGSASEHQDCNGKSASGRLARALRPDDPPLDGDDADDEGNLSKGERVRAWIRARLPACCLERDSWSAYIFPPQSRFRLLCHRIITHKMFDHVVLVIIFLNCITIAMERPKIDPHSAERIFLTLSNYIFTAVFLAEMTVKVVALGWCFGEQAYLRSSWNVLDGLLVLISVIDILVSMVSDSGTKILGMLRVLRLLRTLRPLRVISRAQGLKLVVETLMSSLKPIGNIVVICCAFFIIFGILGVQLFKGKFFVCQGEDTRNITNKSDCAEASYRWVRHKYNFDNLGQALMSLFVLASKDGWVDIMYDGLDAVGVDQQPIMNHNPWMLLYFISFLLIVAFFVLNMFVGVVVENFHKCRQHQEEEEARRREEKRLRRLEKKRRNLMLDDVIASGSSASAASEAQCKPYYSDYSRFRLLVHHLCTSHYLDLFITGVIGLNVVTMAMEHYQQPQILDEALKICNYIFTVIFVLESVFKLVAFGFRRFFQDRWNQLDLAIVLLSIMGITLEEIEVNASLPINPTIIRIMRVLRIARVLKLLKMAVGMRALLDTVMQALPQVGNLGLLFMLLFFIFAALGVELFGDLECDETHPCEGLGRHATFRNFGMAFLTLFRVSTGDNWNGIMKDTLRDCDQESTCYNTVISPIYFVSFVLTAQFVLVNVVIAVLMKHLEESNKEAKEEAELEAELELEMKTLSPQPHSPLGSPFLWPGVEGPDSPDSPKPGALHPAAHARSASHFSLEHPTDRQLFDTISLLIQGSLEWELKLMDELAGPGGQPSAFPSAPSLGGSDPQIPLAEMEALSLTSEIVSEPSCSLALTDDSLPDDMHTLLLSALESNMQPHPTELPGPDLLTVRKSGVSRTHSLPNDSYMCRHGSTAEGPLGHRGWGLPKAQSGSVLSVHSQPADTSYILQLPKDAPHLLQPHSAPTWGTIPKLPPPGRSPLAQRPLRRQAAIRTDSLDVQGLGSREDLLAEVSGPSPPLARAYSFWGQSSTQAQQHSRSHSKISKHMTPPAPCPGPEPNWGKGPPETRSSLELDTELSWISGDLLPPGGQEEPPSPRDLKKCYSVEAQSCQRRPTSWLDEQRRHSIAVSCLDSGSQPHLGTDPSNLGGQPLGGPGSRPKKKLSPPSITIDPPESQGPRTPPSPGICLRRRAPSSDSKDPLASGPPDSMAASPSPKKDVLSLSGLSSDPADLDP
T2 sequence (O43497 whole entry): as above

| SMILES | inhibition at 100 µM [1] [%] | IC50 [2] [µM] | inhibition at 10 µM [1] [%] |
| --- | --- | --- | --- |
| O=C(NCCN1CCCCC1)c1ccc2c(c1)C(=O)N(Cc1cccc(F)c1)C2=O [Compound 61, 1-(2-{[2-(3-fluoro-benzyl)-1,3-dioxo-2,3-dihydro-1H-isoindol-5-carbonyl]-amino}-ethyl)-piperidinium chloride] | 85.5 | 8.52 ± 0.75 |  |
| CC1CCCCN1CCCNC(=O)c1ccc2c(c1)C(=O)N(Cc1ccc(F)cc1)C2=O (centres unmarked) [Compound 69, 1-(3-{[2-(4-fluoro-benzyl)-1,3-dioxo-2,3-dihydro-1H-isoindol-5-carbonyl]-amino}-propyl)-2-methyl-piperidinium chloride] | 84.7 | 2.03 ± 0.12 |  |
| Cc1cccc(CN2C(=O)c3ccc(C(=O)NCCN4CCOCC4)cc3C2=O)c1 [Compound 103, 4-(2-{[2-(3-methyl-benzyl)-1,3-dioxo-2,3-dihydro-1H-isoindol-5-carbonyl]-amino}-ethyl)-4-morpholinium chloride] |  |  | 21.1 |
| Cc1cccc(CN2C(=O)c3ccc(C(=O)NCCCN4CCOCC4)cc3C2=O)c1 [Compound 104, 4-(3-{[2-(3-methyl-benzyl)-1,3-dioxo-2,3-dihydro-1H-isoindol-5-carbonyl]-amino}-propyl)-4-morpholinium chloride] |  |  | 15.5 |
| Cc1ccc(CN2C(=O)c3ccc(C(=O)NCCN4CCCCC4)cc3C2=O)cc1 [Compound 105, 1-(2-{[2-(4-methyl-benzyl)-1,3-dioxo-2,3-dihydro-1H-isoindol-5-carbonyl]-amino}-ethyl)-piperidinium chloride] |  |  | 30.9 |
| Cc1ccc(CN2C(=O)c3ccc(C(=O)NCCCN4CCCCC4)cc3C2=O)cc1 [Compound 106, 1-(3-{[2-(4-methyl-benzyl)-1,3-dioxo-2,3-dihydro-1H-isoindol-5-carbonyl]-amino}-propyl)-piperidinium chloride] |  |  | 40.1 |
| Cc1ccc(CN2C(=O)c3ccc(C(=O)NCCN4CCCC4)cc3C2=O)cc1 [Compound 107, 1-(2-{[2-(4-methyl-benzyl)-1,3-dioxo-2,3-dihydro-1H-isoindol-5-carbonyl]-amino}-ethyl)-pyrrolidinium chloride] |  |  | 20.7 |
| Cc1ccc(CN2C(=O)c3ccc(C(=O)NCCCN4CCCC4)cc3C2=O)cc1 [Compound 108, 1-(3-{[2-(4-methyl-benzyl)-1,3-dioxo-2,3-dihydro-1H isoindol-5-carbonyl]-amino}-propyl)-pyrrolidinium chloride] |  |  | 15.6 |
| Cc1ccc(CN2C(=O)c3ccc(C(=O)NCCN4CCOCC4)cc3C2=O)cc1 [Compound 109, 4-(2-{[2-(4-methyl-benzyl)-1,3-dioxo-2,3-dihydro-1H-isoindol-5-carbonyl]-amino}-ethyl)-4-morpholinium chloride] |  |  | 12.2 |
| Cc1ccc(CN2C(=O)c3ccc(C(=O)NCCCN4CCOCC4)cc3C2=O)cc1 [Compound 110, 4-(3-{[2-(4-methyl-benzyl)-1,3-dioxo-2,3-dihydro-1H-isoindol-5-carbonyl]-amino}-propyl)-4-morpholinium chloride] |  |  | 9.1 |
| COc1ccccc1CN1C(=O)c2ccc(C(=O)NCCN3CCCCC3)cc2C1=O [Compound 111, 1-(2-{[2-(2-methoxy-benzyl)-1,3-dioxo-2,3-dihydro-1H-isoindol-5-carbonyl]-amino}-ethyl)-piperidinium chloride] | 69.5 |  |  |
| COc1ccccc1CN1C(=O)c2ccc(C(=O)NCCCN3CCCCC3C)cc2C1=O (centres unmarked) [Compound 112, 1-(3-{[2-(2-methoxy-benzyl)-1,3-dioxo-2,3-dihydro-1H-isoindol-5-carbonyl]-amino}-propyl)-2-methyl-piperidinium chloride] | 75.1 |  |  |
| COc1ccccc1CN1C(=O)c2ccc(C(=O)NCCN3CCCC3)cc2C1=O [Compound 113, 1-(2-{[2-(2-methoxy-benzyl)-1,3-dioxo-2,3-dihydro-1H-isoindol-5-carbonyl]-amino}-ethyl)-pyrrolidinium chloride] | 55.1 |  |  |
| COc1ccccc1CN1C(=O)c2ccc(C(=O)NCCCN3CCCC3)cc2C1=O [Compound 114, 1-(3-{[2-(2-methoxy-benzyl)-1,3-dioxo-2,3-dihydro-1H-isoindol-5-carbonyl]-amino}-propyl)-pyrrolidinium chloride] | 53 |  |  |
| COc1ccccc1CN1C(=O)c2ccc(C(=O)NCCN3CCOCC3)cc2C1=O [Compound 115, 4-(2-{[2-(2-methoxy-benzyl)-1,3-dioxo-2,3-dihydro-1H-isoindol-5-carbonyl]-amino}-ethyl)-4-morpholinium chloride] | 51.1 |  |  |
| COc1ccccc1CN1C(=O)c2ccc(C(=O)NCCCN3CCOCC3)cc2C1=O [Compound 116, 4-(3-{[2-(2-methoxy-benzyl)-1,3-dioxo-2,3-dihydro-1H-isoindol-5-carbonyl]-amino}-propyl)-4-morpholinium chloride] | 48.8 |  |  |

Now from value to molecule:

| inhibition at 100 µM [1] [%] | IC50 [2] [µM] | inhibition at 10 µM [1] [%] | SMILES |
| --- | --- | --- | --- |
| 69.8 |  |  | COc1cccc(CN2C(=O)c3ccc(C(=O)NCCN4CCCCC4)cc3C2=O)c1 [Compound 117, 1-(2-{[2-(3-methoxy-benzyl)-1,3-dioxo-2,3-dihydro-1H-isoindol-5-carbonyl]-amino}-ethyl)-piperidinium chloride] |
| 71.1 |  |  | COc1cccc(CN2C(=O)c3ccc(C(=O)NCCCN4CCCCC4C)cc3C2=O)c1 (centres unmarked) [Compound 118, 1-(3-{[2-(3-methoxy-benzyl)-1,3-dioxo-2,3-dihydro-1H-isoindol-5-carbonyl]-amino}-propyl)-2-methyl-piperidinium chloride] |
| 56.3 |  |  | COc1cccc(CN2C(=O)c3ccc(C(=O)NCCN4CCCC4)cc3C2=O)c1 [Compound 119, 1-(2-{[2-(3-methoxy-benzyl)-1,3-dioxo-2,3-dihydro-1H-isoindol-5-carbonyl]-amino}-ethyl)-pyrrolidinium chloride] |
| 63.7 |  |  | COc1cccc(CN2C(=O)c3ccc(C(=O)NCCCN4CCCC4)cc3C2=O)c1 [Compound 120, 1-(3-{[2-(3-methoxy-benzyl)-1,3-dioxo-2,3-dihydro-1H-isoindol-5-carbonyl]-amino}-propyl)-pyrrolidinium chloride] |
| 57.6 |  |  | COc1cccc(CN2C(=O)c3ccc(C(=O)NCCN4CCOCC4)cc3C2=O)c1 [Compound 121, 4-(2-{[2-(3-methoxy-benzyl)-1,3-dioxo-2,3-dihydro-1H-isoindol-5-carbonyl]-amino}-ethyl)-4-morpholinium chloride] |
| 56.6 |  |  | COc1cccc(CN2C(=O)c3ccc(C(=O)NCCCN4CCOCC4)cc3C2=O)c1 [Compound 122, 4-(3-{[2-(3-methoxy-benzyl)-1,3-dioxo-2,3-dihydro-1H-isoindol-5-carbonyl]-amino}-propyl)-4-morpholinium chloride] |
| 64.3 |  |  | COc1ccc(CN2C(=O)c3ccc(C(=O)NCCN4CCCCC4)cc3C2=O)cc1 [Compound 123, 1-(2-{[2-(4-methoxy-benzyl)-1,3-dioxo-2,3-dihydro-1H isoindol-5-carbonyl]-amino}-ethyl)-piperidinium chloride] |
| 77.7 |  |  | COc1ccc(CN2C(=O)c3ccc(C(=O)NCCCN4CCCCC4C)cc3C2=O)cc1 (centres unmarked) [Compound 124, 1-(3-{[2-(4-methoxy-benzyl)-1,3-dioxo-2,3-dihydro-1H-isoindol-5-carbonyl]-amino}-propyl)-2-methyl-piperidinium chloride] |
| 65.2 |  |  | COc1ccc(CN2C(=O)c3ccc(C(=O)NCCN4CCCC4)cc3C2=O)cc1 [Compound 125, 1-(2-{[2-(4-methoxy-benzyl)-1,3-dioxo-2,3-dihydro-1H-isoindol-5-carbonyl]-amino}-ethyl)-pyrrolidinium chloride] |
| 73.8 |  |  | COc1ccc(CN2C(=O)c3ccc(C(=O)NCCCN4CCCC4)cc3C2=O)cc1 [Compound 126, 1-(3-{[2-(4-methoxy-benzyl)-1,3-dioxo-2,3-dihydro-1H-isoindol-5-carbonyl]-amino}-propyl)-pyrrolidinium chloride] |
| 51.7 |  |  | COc1ccc(CN2C(=O)c3ccc(C(=O)NCCN4CCOCC4)cc3C2=O)cc1 [Compound 127, 4-(2-{[2-(4-methoxy-benzyl)-1,3-dioxo-2,3-dihydro-1H-isoindol-5-carbonyl]-amino}-ethyl)-4-morpholinium chloride] |
| 52.9 |  |  | COc1ccc(CN2C(=O)c3ccc(C(=O)NCCCN4CCOCC4)cc3C2=O)cc1 [Compound 128, 4-(3-{[2-(4-methoxy-benzyl)-1,3-dioxo-2,3-dihydro-1H-isoindol-5-carbonyl]-amino}-propyl)-4-morpholinium chloride] |
|  |  | 9.1 | CC1CCCCN1CCCNC(=O)c1ccc2c(c1)C(=O)N(Cc1ccc(C#N)cc1)C2=O (centres unmarked) [Compound 130, 1-(3-{[2-(4-cyano-benzyl)-1,3-dioxo-2,3-dihydro-1H-isoindol-5-carbonyl]-amino}-propyl)-2-methyl-piperidinium chloride] |
|  |  | 0.6 | N#Cc1ccc(CN2C(=O)c3ccc(C(=O)NCCN4CCCC4)cc3C2=O)cc1 [Compound 131, 1-(2-{[2-(4-cyano-benzyl)-1,3-dioxo-2,3-dihydro-1H-isoindol-5-carbonyl]-amino}-ethyl)-pyrrolidinium chloride] |

Reference: US7319098B2, “1,3-dioxoisoindole derivatives having selective antagonism of T-type calcium channel” (Korea Institute of Science and Technology, priority 2006, dated 2008)
